According to patent publication US7572635B2, “Method for agrobacterium transformation for dihaploid corn plants” (Monsanto Technology LLC, priority 2004, dated 2009):

Experiments:
plant tissues = assay: Regenerability of plant tissues exposed to colchicine (own experiments); format: cell-based; conditions: levels of colchicine below levels used for chromosome doubling
From the text: The ability to produce dihaploid transformed plants without the use of an added chromosome doubling agent is a huge advantage. Chromosome doubling agents tend to be highly toxic chemicals because they are antimicrotubule agents. Also, when using chromosome doubling agents to produce dihaploids from haploids some tetraploids are formed as well. Also, optimization of the chromosome doubling agent is detrimental to the production of transformants in the transformation process.

R0 plants = assay: Comparison of doubling with and without colchicine: ploidy number of R0 plants; format: in vivo, corn
From the text: Comparison of Doubling with and without Colchicine
This is about a 3-fold increase in the amount of doubling. The doubling from the Agrobacterium-mediated transformation process is about as efficient as a very low level of colchicine (50%), but not as effective as a more typical amount (83%).

SMILES: COc1cc2c(c(OC)c1OC)-c1ccc(OC)c(=O)cc1[C@@H](NC(C)=O)CC2 [colchicine]
- regenerability of plant tissues (plant tissues): greatly diminish the regenerability of plant tissues
- % diploid (R0 plants; no transformation + 0.01% colchicine + plant regeneration (very low level of colchicine)): 50%
- % diploid (R0 plants; no transformation + 0.025% colchicine + plant regeneration (more typical amount used for doubling)): 83%
